Values belong to the compound of their own block, whether it stands above or below them. Calls of active or inactive are those of the source.
Assays:
[1] = molecular target: Dual specificity protein kinase CLK2 (Homo sapiens, UniProt P49760); assay type: functional
[2] = molecular target: Serine/threonine-protein kinase 17A (Homo sapiens, UniProt Q9UEE5); assay type: functional
[3] = molecular target: Mitogen-activated protein kinase kinase kinase kinase 2 (Homo sapiens, UniProt Q12851); assay type: functional;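 further: measured as one member of a kinome-wide kinase panel, with MAP4K2 as the panel entry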
Misshapen-like kinase 1 = Misshapen-like kinase 1 (Homo sapiens, UniProt Q8N4C8); assay type: functional;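 further: kinome panel screen with MINK as the panel member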
Melanocortin receptor 4 = Melanocortin receptor 4 (Homo sapiens, UniProt P32245); assay: inhibitors of MC4R cAMP signaling – cell-based, TR-FRET, biased antagonists, dose response (AID 602298); assay type: functional;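 further: antagonist potency against agonist-stimulated cAMP production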
[4] = cAMP pathway inhibition in counterscreen cell line – TR-FRET cAMP detection, counter-screen for MC4R biased antagonist project, dose response (AID 602305); assay type: functional, cell-based;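 further: U2OS cells stimulated with forskolin near its EC80 as the cAMP inducer; potency is for inhibition of forskolin-stimulated cAMP signaling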
[5] = molecular target: Sphingosine 1-phosphate receptor 2 (Homo sapiens, UniProt O95136); assay: Late-stage fluorescence-based dose-response cell-based counterscreen assay to identify agonists of the Sphingosine 1-Phosphate Receptor 3 (S1P3): Sphingosine 1-Phosphate Receptor 2 (S1P2) agonist assay.; assay type: functional
[6] = molecular target: T1, Sphingosine 1-phosphate receptor 4 (Homo sapiens, UniProt O95977); assay: Late-stage fluorescence-based dose-response cell-based counterscreen assay to identify agonists of the Sphingosine 1-Phosphate Receptor 3 (S1P3): Sphingosine 1-Phosphate Receptor 4 (S1P4) agonist assay.; assay type: functional
T1 sequence (O95977 whole entry): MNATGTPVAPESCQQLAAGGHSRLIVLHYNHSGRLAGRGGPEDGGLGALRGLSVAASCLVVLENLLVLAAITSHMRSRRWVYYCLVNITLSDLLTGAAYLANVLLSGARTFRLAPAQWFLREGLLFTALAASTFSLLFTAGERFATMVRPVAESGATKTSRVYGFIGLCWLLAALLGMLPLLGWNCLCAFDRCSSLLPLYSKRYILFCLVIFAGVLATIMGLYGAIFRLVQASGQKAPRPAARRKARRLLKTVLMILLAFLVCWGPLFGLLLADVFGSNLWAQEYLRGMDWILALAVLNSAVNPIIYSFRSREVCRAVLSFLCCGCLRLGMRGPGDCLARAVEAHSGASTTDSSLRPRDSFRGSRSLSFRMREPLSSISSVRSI

[7] = Luminescence Cell-Based Dose Confirmation HTS to Identify Inhibitors of Platelet Dense Granule Release. [Related pubchem assays: 1663 (Primary HTS), 1678 (Summary of Project)]; assay type: functional
[8] = molecular target: T2, High affinity choline transporter 1 (Homo sapiens, UniProt Q9GZV3); assay: human choline transporter blockers, potency – cell-based, 5-point CRC, membrane potential dye, dose response (AID 504840); assay type: functional
T2 sequence (Q9GZV3 whole entry): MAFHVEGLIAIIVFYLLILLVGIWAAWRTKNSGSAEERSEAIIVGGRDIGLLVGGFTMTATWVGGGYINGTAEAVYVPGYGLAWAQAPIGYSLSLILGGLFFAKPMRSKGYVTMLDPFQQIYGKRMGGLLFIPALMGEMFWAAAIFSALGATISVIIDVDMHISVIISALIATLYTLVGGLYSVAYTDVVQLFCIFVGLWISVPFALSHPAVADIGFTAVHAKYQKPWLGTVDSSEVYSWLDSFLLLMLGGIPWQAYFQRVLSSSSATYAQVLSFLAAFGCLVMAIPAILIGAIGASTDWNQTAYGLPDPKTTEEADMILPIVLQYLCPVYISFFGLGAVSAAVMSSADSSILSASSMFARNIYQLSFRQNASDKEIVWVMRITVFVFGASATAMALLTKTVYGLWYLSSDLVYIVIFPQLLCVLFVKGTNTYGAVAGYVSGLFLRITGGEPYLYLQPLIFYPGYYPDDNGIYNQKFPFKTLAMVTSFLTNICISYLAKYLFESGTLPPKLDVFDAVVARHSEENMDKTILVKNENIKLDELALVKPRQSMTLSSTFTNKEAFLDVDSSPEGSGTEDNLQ

[9] = molecular target: T2, High affinity choline transporter 1; assay: human choline transporter blockers, potency – cell-based, 10-point CRC, membrane potential dye, dose response (AID 588401); assay type: functional;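 further: membrane potential dye fluorescence of choline-evoked depolarization via CHT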
[10] = molecular target: Serine/threonine-protein kinase pim-1 (Homo sapiens, UniProt P11309); assay type: functional
[11] = molecular target: Cell division cycle 7-related protein kinase (Homo sapiens, UniProt O00311); assay type: functional;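 further: value obtained from a kinome-wide kinase panel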
[12] = molecular target: Homeodomain-interacting protein kinase 2 (Homo sapiens, UniProt Q9H2X6); assay type: functional;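 further: measured within a kinome-wide kinase profiling panel, HIPK2 being one panel member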
[13] = molecular target: Interleukin-1 receptor-associated kinase 4 (Homo sapiens, UniProt Q9NWZ3); assay type: functional
[14] = molecular target: Cyclin-dependent kinase 7 (Homo sapiens, UniProt P50613); assay type: functional;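 further: value comes from a kinome-wide kinase profiling panel in which CDK7 is one member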
[15] = molecular target: Glycogen synthase kinase-3 beta (Homo sapiens, UniProt P49841); assay type: functional;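 further: value comes from a broad kinome profiling panel, with GSK3B as the panel member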
[16] = molecular target: Cyclin-dependent kinase 9 (Homo sapiens, UniProt P50750); assay type: functional;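 further: value from the CDK9 entry of a kinome-spanning kinase panel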
[17] = molecular target: cAMP-dependent protein kinase catalytic subunit alpha (Homo sapiens, UniProt P17612); assay type: functional
Aurora kinase A = Aurora kinase A (Homo sapiens, UniProt O14965); assay type: functional;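 further: value from the Navigating the Kinome kinase panel profiling, panel entry STK6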
[18] = molecular target: Vascular endothelial growth factor receptor 2 (Homo sapiens, UniProt P35968); assay type: functional
Aurora kinase B = Aurora kinase B (Homo sapiens, UniProt Q96GD4); assay type: functional
[19] = molecular target: Cyclin-dependent kinase 19 (Homo sapiens, UniProt Q9BWU1); assay: Navigating the Kinome. Panel member name: CDC2L6; assay type: functional
[20] = molecular target: Protein kinase C delta type (Homo sapiens, UniProt Q05655); assay type: functional
[21] = molecular target: Calcium/calmodulin-dependent protein kinase type II subunit gamma (Homo sapiens, UniProt Q13555); assay type: functional
[22] = molecular target: Calcium/calmodulin-dependent protein kinase type II subunit delta (Homo sapiens, UniProt Q13557); assay type: functional
[23] = molecular target: Receptor-type tyrosine-protein kinase FLT3 (Homo sapiens, UniProt P36888); assay type: functional;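 further: FLT3 was tested as one member of a kinome-wide kinase panel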
[24] = molecular target: Calcium/calmodulin-dependent protein kinase type II subunit beta (Homo sapiens, UniProt Q13554); assay type: functional

Chain of Receptor-type tyrosine-protein kinase FLT3 (P36888 whole entry): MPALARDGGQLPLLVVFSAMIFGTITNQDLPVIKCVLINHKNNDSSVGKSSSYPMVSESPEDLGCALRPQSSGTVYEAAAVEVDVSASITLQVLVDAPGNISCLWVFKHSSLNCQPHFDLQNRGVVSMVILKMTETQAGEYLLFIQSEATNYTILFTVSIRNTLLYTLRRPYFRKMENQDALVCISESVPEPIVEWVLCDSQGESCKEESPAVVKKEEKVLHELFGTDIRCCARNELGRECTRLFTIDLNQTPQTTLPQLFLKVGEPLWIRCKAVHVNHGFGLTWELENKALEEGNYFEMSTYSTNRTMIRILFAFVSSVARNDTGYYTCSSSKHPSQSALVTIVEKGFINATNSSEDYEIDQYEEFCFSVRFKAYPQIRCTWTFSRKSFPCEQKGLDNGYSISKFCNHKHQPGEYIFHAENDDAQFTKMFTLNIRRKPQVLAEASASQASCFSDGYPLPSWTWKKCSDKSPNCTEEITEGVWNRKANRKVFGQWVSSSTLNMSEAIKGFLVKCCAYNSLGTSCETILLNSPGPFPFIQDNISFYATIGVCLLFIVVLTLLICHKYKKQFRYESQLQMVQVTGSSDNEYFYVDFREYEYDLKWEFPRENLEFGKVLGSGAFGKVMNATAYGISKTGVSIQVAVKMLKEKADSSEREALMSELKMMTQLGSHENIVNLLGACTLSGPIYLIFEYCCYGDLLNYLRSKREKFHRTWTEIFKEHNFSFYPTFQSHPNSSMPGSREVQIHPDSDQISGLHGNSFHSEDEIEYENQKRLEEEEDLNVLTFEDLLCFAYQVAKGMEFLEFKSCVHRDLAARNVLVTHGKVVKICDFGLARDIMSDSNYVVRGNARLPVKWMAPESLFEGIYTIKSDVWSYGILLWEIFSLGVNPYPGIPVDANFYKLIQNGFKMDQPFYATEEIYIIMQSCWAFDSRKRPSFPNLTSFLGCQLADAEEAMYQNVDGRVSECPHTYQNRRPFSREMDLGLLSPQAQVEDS
Chain of Melanocortin receptor 4 (P32245 whole entry): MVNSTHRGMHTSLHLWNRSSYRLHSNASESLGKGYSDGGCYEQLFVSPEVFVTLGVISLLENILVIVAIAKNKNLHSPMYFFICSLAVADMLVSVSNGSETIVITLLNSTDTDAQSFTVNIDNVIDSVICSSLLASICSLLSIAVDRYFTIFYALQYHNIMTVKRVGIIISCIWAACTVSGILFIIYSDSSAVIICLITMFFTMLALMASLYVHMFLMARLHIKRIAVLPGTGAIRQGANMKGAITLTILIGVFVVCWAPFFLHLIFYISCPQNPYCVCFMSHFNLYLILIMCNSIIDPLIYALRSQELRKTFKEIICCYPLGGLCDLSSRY
Chain of Glycogen synthase kinase-3 beta (P49841 whole entry): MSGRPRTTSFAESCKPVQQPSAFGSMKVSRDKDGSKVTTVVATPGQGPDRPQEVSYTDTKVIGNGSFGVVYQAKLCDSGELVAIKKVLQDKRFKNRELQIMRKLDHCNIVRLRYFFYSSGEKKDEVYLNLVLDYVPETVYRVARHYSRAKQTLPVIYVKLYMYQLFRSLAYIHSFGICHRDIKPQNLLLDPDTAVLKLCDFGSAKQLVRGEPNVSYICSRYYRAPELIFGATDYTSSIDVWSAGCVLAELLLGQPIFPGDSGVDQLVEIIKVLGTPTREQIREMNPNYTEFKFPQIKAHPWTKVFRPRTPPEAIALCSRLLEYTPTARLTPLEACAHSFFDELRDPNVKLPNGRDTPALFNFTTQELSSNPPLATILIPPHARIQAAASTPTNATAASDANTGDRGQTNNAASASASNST
Chain of Vascular endothelial growth factor receptor 2 (P35968 whole entry): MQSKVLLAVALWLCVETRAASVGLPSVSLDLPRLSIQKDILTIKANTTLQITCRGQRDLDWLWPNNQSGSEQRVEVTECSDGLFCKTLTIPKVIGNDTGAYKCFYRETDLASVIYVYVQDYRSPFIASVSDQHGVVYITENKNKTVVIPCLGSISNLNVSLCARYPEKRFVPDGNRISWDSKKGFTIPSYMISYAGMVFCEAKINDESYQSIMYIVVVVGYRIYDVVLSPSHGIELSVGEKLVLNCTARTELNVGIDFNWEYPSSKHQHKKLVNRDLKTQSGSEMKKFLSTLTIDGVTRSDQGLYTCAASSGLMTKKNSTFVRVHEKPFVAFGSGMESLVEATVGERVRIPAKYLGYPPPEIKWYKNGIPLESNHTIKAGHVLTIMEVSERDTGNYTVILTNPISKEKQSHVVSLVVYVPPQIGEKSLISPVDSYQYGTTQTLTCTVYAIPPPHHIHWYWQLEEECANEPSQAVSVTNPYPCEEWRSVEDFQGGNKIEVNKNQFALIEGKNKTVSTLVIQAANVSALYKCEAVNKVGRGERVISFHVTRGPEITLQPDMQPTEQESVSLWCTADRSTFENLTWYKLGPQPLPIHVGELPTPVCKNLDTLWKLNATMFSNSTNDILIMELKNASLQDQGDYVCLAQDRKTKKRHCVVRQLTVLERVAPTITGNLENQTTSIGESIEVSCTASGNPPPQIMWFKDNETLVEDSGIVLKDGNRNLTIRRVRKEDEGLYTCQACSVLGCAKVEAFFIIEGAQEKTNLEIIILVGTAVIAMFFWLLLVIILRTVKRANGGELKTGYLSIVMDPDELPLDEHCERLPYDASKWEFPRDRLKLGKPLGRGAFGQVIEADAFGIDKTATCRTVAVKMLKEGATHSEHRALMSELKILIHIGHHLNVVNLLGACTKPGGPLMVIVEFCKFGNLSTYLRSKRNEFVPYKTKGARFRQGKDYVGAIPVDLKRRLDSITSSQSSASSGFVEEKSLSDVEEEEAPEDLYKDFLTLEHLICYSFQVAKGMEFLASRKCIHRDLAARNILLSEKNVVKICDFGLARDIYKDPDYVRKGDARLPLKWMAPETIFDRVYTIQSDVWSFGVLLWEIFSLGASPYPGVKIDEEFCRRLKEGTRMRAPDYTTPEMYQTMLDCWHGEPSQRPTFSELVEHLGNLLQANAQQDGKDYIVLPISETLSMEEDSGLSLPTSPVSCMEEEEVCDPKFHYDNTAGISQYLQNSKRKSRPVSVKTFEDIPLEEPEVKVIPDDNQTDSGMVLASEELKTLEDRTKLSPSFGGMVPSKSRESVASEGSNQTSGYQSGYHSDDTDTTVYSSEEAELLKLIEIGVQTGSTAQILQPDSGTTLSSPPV
Chain of Cyclin-dependent kinase 19 (Q9BWU1 whole entry): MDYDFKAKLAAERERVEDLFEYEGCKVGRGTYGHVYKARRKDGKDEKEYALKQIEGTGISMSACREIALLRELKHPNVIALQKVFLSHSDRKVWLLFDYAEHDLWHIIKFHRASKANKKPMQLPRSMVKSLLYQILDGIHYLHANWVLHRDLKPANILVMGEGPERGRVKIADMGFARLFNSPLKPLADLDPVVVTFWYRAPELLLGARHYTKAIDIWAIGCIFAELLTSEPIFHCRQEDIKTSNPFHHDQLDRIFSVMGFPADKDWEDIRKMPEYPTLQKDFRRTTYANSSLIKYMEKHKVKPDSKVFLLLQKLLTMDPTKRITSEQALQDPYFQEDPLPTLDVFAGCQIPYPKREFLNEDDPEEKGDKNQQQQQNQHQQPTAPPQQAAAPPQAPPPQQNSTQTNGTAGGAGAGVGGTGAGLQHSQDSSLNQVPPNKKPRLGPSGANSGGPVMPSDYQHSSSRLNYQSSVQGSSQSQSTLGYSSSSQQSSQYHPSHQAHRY
Chain of Sphingosine 1-phosphate receptor 2 (O95136 whole entry): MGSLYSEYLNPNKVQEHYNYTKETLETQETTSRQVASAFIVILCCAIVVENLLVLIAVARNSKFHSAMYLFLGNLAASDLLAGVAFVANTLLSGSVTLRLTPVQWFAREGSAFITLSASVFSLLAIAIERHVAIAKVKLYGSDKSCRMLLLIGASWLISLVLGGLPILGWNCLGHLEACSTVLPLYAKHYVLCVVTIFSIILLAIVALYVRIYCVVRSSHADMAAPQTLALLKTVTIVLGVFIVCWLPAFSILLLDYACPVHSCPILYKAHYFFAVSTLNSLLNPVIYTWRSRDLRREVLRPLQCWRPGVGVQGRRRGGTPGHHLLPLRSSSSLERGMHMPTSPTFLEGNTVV
Chain of Cyclin-dependent kinase 7 (P50613 whole entry): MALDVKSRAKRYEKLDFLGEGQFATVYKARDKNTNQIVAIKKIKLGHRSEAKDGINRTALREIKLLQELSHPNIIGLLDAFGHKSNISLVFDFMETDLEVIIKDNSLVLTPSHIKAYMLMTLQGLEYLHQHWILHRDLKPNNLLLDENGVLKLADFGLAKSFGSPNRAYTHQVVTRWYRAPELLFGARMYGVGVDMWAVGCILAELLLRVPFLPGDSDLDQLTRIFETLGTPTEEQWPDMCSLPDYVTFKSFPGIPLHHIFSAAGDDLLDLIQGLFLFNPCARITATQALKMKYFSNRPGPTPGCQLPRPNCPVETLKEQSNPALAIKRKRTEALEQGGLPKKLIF
Chain of Protein kinase C delta type (Q05655 whole entry): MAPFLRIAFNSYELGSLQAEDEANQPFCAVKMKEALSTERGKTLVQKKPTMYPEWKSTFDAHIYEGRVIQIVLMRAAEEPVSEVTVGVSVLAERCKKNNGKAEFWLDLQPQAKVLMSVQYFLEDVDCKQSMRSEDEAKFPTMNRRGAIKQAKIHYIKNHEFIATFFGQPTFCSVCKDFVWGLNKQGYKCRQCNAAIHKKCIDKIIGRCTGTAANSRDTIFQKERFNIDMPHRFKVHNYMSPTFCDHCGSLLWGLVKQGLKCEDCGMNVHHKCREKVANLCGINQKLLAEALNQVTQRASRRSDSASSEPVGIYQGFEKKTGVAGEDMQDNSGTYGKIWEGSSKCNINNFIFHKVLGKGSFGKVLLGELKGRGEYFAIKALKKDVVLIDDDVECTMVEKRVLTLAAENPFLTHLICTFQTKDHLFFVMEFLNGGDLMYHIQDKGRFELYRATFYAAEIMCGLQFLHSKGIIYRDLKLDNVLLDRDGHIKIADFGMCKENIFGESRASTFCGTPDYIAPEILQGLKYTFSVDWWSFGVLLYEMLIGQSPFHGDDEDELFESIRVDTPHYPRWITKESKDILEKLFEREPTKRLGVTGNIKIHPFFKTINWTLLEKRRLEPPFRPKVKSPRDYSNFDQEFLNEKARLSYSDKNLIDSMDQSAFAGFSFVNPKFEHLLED

Ki [1]: 7940 nM (active) | Ki [2]: 2510 nM (active) | Ki [3]: 5010 nM (active) | Ki (Misshapen-like kinase 1): 5010 nM (active)
SMILES: Cc1n[nH]c2c1C(c1ccccc1F)C(C#N)=C(N)O2 (stereo not drawn)

SMILES: CCN(CC)C(=O)C(C)N(C#N)c1nc(Cl)nc(N(C)C)n1 (stereo not drawn)
IC50 (Melanocortin receptor 4): > 64600 nM (inactive) | IC50 [4]: > 64600 nM (inactive)

EC50 [5]: > 50000 nM (inactive) | EC50 [6]: > 50000 nM (inactive)
SMILES: O=C(c1cc(C2CC2)on1)N(C1CCCCC1)C1CCOCC1

SMILES: Nc1ncnc2c1ncn2[C@@H]1O[C@H](CO)[C@@H](O)[C@H]1O [ADENOSINE]
EC50 [7]: 759 nM (active) | IC50 [8]: 571 nM (active) | IC50 [9]: 200 nM (active)

Ki [10]: 398 nM (active) | Ki [11]: 0.631 nM (active) | Ki [12]: 7.94 nM (active) | Ki [13]: 1580 nM (active) | Ki [14]: 79.4 nM (active) | Ki [15]: 31.6 nM (active) | Ki [16]: 158 nM (active) | Ki [17]: 31.6 nM (active)
SMILES: CC(C)(CO)CCCNc1cc(-c2c[nH]c3ncccc23)cc(Cl)n1

Ki (Aurora kinase A): 200 nM (active) | Ki [18]: 12.6 nM (active) | Ki (Aurora kinase B): 5.01 nM (active) | Ki [19]: 20 nM (active)
SMILES: O=C(Nc1cccc(-c2nn3ccccc3c2-c2ccnc(Nc3ccc4c(c3)CNCC4)n2)c1)c1c(F)cccc1F

Ki [20]: 7940 nM (active) | Ki [21]: 1580 nM (active) | Ki [22]: 2000 nM (active) | Ki [23]: 1260 nM (active) | Ki [24]: 2000 nM (active)
SMILES: CCNc1nc(C)c(C=CC(C)(C)c2ccc(C(F)(F)F)cc2)c(NCC)n1

Reference: ChEMBL document CHEMBL1201862, “PubChem BioAssay data set” (2004)
